Measurements reported in BigSolDB 2.1.

Cc1n[nH]c(=S)s1
solubility (mole fraction)
Conditions | 283.15 K | 288.15 K | 293.15 K | 298.15 K | 303.15 K | 308.15 K | 313.15 K | 318.15 K | 323.15 K
in ethanol | 0.0105 | 0.0131 | 0.0156 | 0.0184 | 0.0219 | 0.0249 | 0.0297 | 0.0342 | 0.04
in ethyl acetate | 0.0152 | 0.0173 | 0.0197 | 0.0221 | 0.0244 | 0.0272 | 0.0307 | 0.0338 | 0.038
in ethyl formate | 0.00842 | 0.01 | 0.0114 | 0.0134 | 0.0151 | 0.0176 | 0.0202 | 0.0227 | 0.0257
in isobutanol | 0.00538 | 0.00689 | 0.00881 | 0.0112 | 0.0143 | 0.0172 | 0.0216 | 0.0271 | 0.0319
in isopropanol | 0.00763 | 0.00943 | 0.0115 | 0.0143 | 0.0179 | 0.0215 | 0.0258 | 0.0314 | 0.0374
in methanol | 0.0104 | 0.0129 | 0.0153 | 0.018 | 0.0213 | 0.0246 | 0.0292 | 0.0337 | 0.0396
in methyl acetate | 0.0167 | 0.0189 | 0.021 | 0.0234 | 0.0257 | 0.0284 | 0.0313 | 0.0342 | 0.0382
in n-butanol | 0.00723 | 0.00904 | 0.0109 | 0.0136 | 0.0164 | 0.0194 | 0.0239 | 0.0287 | 0.0333
in n-butyl acetate | 0.0135 | 0.0153 | 0.0172 | 0.0194 | 0.022 | 0.0246 | 0.0274 | 0.0304 | 0.0336
in n-pentyl acetate | 0.0117 | 0.0137 | 0.0157 | 0.0178 | 0.0203 | 0.0229 | 0.0261 | 0.0289 | 0.0334
in n-propanol | 0.0097 | 0.0119 | 0.0145 | 0.0171 | 0.0206 | 0.0243 | 0.0288 | 0.033 | 0.0389
in n-propyl acetate | 0.0146 | 0.0163 | 0.0187 | 0.0213 | 0.0237 | 0.0266 | 0.0301 | 0.033 | 0.0368
